#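 Interpolation was linear, between the two tested concentrations surrounding the appropriate level; five concentrations were tested over 48 hours in 96-well plates. At the GI50, growth is halved.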 The source made the active and inactive calls. No stated cut-off is given here; in the data, active = GI50 up to about 1.1 µM and inactive = higher.
# Columns and labels:
# Test in all cases: inhibition of tumour cell growth, NCI panel, 48 h
# IGROV-1 = test system: IGROV-1
# MDA-N = test system: MDA-N
# HCT-116 = test system: HCT-116
# SR = test system: SR
# Hs-578T = test system: Hs-578T
# DU-145 = test system: DU-145
# SNB-75 = test system: SNB-75
# ACHN = test system: ACHN
# SF-539 = test system: SF-539
# T47D = test system: T47D
# OVCAR-5 = test system: OVCAR-5
# SK-MEL-28 = test system: SK-MEL-28
# MDA-MB-435 = test system: MDA-MB-435
# CCRF-CEM = test system: CCRF-CEM
# NCI-H226 = test system: NCI-H226
# UO-31 = test system: UO-31
# EKVX = test system: EKVX
# BT-549 = test system: BT-549
# MCF7 = test system: MCF7
# COLO 205 = test system: COLO 205
SMILES,GI50 (IGROV-1),GI50 (MDA-N),GI50 (HCT-116),GI50 (SR),GI50 (Hs-578T),GI50 (DU-145),GI50 (SNB-75),GI50 (ACHN),GI50 (SF-539),GI50 (T47D),GI50 (OVCAR-5),GI50 (SK-MEL-28),GI50 (MDA-MB-435),GI50 (CCRF-CEM),GI50 (NCI-H226),GI50 (UO-31),GI50 (EKVX),GI50 (BT-549),GI50 (MCF7),GI50 (COLO 205)
O=C(Oc1cccnc1)c1cc2cc(CCl)ccc2oc1=O,25.5 µM (inactive),26.5 µM (inactive),17.7 µM (inactive),24 µM (inactive),25.4 µM (inactive),18.8 µM (inactive),29.7 µM (inactive),18.9 µM (inactive),44.2 µM (inactive),23.3 µM (inactive),22.6 µM (inactive),32.4 µM (inactive),25.9 µM (inactive),20.7 µM (inactive),66.1 µM (inactive),20 µM (inactive),21.5 µM (inactive),24.8 µM (inactive),3.15 µM (inactive),27.2 µM (inactive)
O=c1c2cc([N+](=O)[O-])cnc2sn1-c1ccc([N+](=O)[O-])cc1,52.5 µM (inactive),87.7 µM (inactive),23.7 µM (inactive),22.1 µM (inactive),29.2 µM (inactive),45.7 µM (inactive),38.1 µM (inactive),71.3 µM (inactive),29.2 µM (inactive),14.7 µM (inactive),59.2 µM (inactive),82.4 µM (inactive),84.1 µM (inactive),34.8 µM (inactive),74.6 µM (inactive),52 µM (inactive),40.3 µM (inactive),40 µM (inactive),22.4 µM (inactive),16.9 µM (inactive)
O=C(N/N=C/C=C/c1ccc([N+](=O)[O-])o1)c1ccc(C(=O)N/N=C/C=C/c2ccc([N+](=O)[O-])o2)cc1,46.8 µM (inactive),29.5 µM (inactive),12.7 µM (inactive),17.3 µM (inactive),> 100 µM (inactive),> 47 µM (inactive),> 100 µM (inactive),32.6 µM (inactive),6.18 µM (inactive),> 40.1 µM (inactive),> 100 µM (inactive),57 µM (inactive),37.2 µM (inactive),1.93 µM (inactive),> 100 µM (inactive),> 67.6 µM (inactive),> 100 µM (inactive),> 100 µM (inactive),34.4 µM (inactive),36 µM (inactive)
O=C1Nc2ccccc2/C1=C1/Nc2ccccc2/C1=N\OCCOC1OCC(O)C(O)C1O (stereo not given),5.35 µM (inactive),> 100 µM (inactive),32.8 µM (inactive),33 µM (inactive),> 100 µM (inactive),> 100 µM (inactive),> 100 µM (inactive),> 100 µM (inactive),> 100 µM (inactive),41.1 µM (inactive),> 100 µM (inactive),> 100 µM (inactive),> 100 µM (inactive),> 100 µM (inactive),69.3 µM (inactive),> 100 µM (inactive),> 100 µM (inactive),> 100 µM (inactive),53.2 µM (inactive),31 µM (inactive)
Nc1nc(Nc2ccccc2)sc1C(=O)c1ccco1,15.6 µM (inactive),17.2 µM (inactive),12.8 µM (inactive),5.97 µM (inactive),13.3 µM (inactive),14.7 µM (inactive),15.1 µM (inactive),19.2 µM (inactive),15.7 µM (inactive),14.9 µM (inactive),34 µM (inactive),32.8 µM (inactive),16.4 µM (inactive),3.62 µM (inactive),21.3 µM (inactive),12.1 µM (inactive),15.3 µM (inactive),23.2 µM (inactive),7.74 µM (inactive),13.2 µM (inactive)
O=C1NCN(c2ccccc2)C12CCN(CCCN1CCN(CCOC(c3ccccc3)c3ccccc3)CC1)CC2,4.03 µM (inactive),0.8 µM (active),2.33 µM (inactive),0.561 µM (active),3.48 µM (inactive),3.59 µM (inactive),2.18 µM (inactive),2.5 µM (inactive),1.25 µM (inactive),3.02 µM (inactive),5.08 µM (inactive),1.34 µM (inactive),0.923 µM (active),0.859 µM (active),2.96 µM (inactive),1.5 µM (inactive),3.68 µM (inactive),3.92 µM (inactive),3.11 µM (inactive),1.18 µM (inactive)
CN(C)c1ccc(C2C(Cl)C(=O)N2NC(=O)c2c(Cl)c(Cl)c(Cl)c(Cl)c2-c2nc3ccccc3[nH]2)cc1 (stereo not given),1.62 µM (inactive),5.77 µM (inactive),5.2 µM (inactive),0.685 µM (active),33.3 µM (inactive),6.92 µM (inactive),15.6 µM (inactive),15.8 µM (inactive),7.89 µM (inactive),6.62 µM (inactive),31.3 µM (inactive),28.1 µM (inactive),4.76 µM (inactive),3.36 µM (inactive),15.8 µM (inactive),19.4 µM (inactive),18.3 µM (inactive),13.6 µM (inactive),5.53 µM (inactive),7.67 µM (inactive)
CN(C)CCCN1C(=S)N(CCCN(C)C)c2c3cc(O)ccc3nc3c([N+](=O)[O-])ccc1c23,0.7 µM (active),3.42 µM (inactive),1 µM (active),0.278 µM (active),5.61 µM (inactive),2.47 µM (inactive),3.37 µM (inactive),0.703 µM (active),1.29 µM (inactive),1.44 µM (inactive),11.8 µM (inactive),2.58 µM (inactive),4.2 µM (inactive),1.18 µM (inactive),1.94 µM (inactive),2.87 µM (inactive),4.08 µM (inactive),11.7 µM (inactive),0.902 µM (active),1.12 µM (inactive)
O=C(O)C(Cc1c[nH]c2ccccc12)C(=O)NO (stereo not given),> 100 µM (inactive),> 100 µM (inactive),> 100 µM (inactive),> 100 µM (inactive),> 100 µM (inactive),> 100 µM (inactive),> 100 µM (inactive),> 100 µM (inactive),> 100 µM (inactive),> 100 µM (inactive),> 100 µM (inactive),> 100 µM (inactive),> 100 µM (inactive),39.8 µM (inactive),> 100 µM (inactive),> 100 µM (inactive),14.2 µM (inactive),> 100 µM (inactive),> 100 µM (inactive),> 100 µM (inactive)
CC1(C)C2CCC3=C(CCC4(C)C5C[C@](C)(C(=O)O)CC[C@]5(C)CC[C@]34C)[C@@]2(C)CC[C@@H]1O (stereo not given in full),24.2 µM (inactive),18.8 µM (inactive),16.6 µM (inactive),30.8 µM (inactive),31 µM (inactive),18.3 µM (inactive),19 µM (inactive),12.1 µM (inactive),37.3 µM (inactive),18 µM (inactive),49.8 µM (inactive),17.5 µM (inactive),23.7 µM (inactive),14.9 µM (inactive),29 µM (inactive),29.4 µM (inactive),20.4 µM (inactive),20.1 µM (inactive),19.9 µM (inactive),38.3 µM (inactive)

# — ChEMBL document CHEMBL1201862, “PubChem BioAssay data set” (2004)
